Laboratory results from patent US8198299B2, “Cycloalkylidene and heterocycloalkylidene inhibitor compounds” (Gilead Sciences, Inc., priority 2008, dated 2012).

Target: HDAC 1 (Homo sapiens, UniProt Q13547)
Assay: HDAC 1 inhibition assay with about 3-hour enzyme/compound preincubation (fluorophore/quencher peptide substrate)
Type: biochemical
Settings: 3-hour preincubation of enzyme and compound at room temperature; read-out: HDAC 1 inhibitory activity (IC50 [μM]) (3-hour preincubation)
Procedure: HDAC inhibitory activity of the compound of Example 1 was measured by two types of assays in which HDAC 1 and 6 were used as a target molecule. The first assay was carried out without preincubation after addition of the enzyme. The test compound was suspended in and titrated in DMSO. It was then spotted into a 384-well test plate. The enzyme, HDAC 1 or 6, was diluted in assay buffer containing 25 mM Tris-HCl (pH 8.0), 137 mM NaCl, 2.7 mM KCl, and 0.01% Tween-20 and added to the pre-spotted compound. The peptide substrate containing a fluorophore/quencher pair was diluted in the same assay buffer and added to the compound/enzyme mix initiating the reaction. The reaction incubated at room temperature for about 45 minutes. A concentrated developer solution was diluted in the assay buffer, and added to the reaction. The reaction was incubated at room temperature for about 15 minutes and relative fluorescence was read on an instrument reader.
The second assay is similar to the first assay described above, except that preincubation is carried out for about 3 hours after the enzyme is introduced. The test compound was suspended in, and titrated in DMSO. It was then spotted into a 384-well test plate. The enzyme, HDAC 1 or 6, was diluted in the same assay buffer as used in the previous assay and added to the pre-spotted compound. The enzyme/compound mix was incubated at room temperature for about 3 hours. The peptide substrate containing a fluorophore/quencher pair was diluted in the assay buffer and added to the compound/enzyme mix initiating the reaction. The reaction incubated at room temperature for 45 minutes. A concentrated developer solution was diluted in the assay buffer, and added to the reaction. The reaction was incubated at room temperature for about 15 minutes and relative fluorescence was read on an instrument reader.

HDAC 1, sequence (Q13547 whole entry, species assumed): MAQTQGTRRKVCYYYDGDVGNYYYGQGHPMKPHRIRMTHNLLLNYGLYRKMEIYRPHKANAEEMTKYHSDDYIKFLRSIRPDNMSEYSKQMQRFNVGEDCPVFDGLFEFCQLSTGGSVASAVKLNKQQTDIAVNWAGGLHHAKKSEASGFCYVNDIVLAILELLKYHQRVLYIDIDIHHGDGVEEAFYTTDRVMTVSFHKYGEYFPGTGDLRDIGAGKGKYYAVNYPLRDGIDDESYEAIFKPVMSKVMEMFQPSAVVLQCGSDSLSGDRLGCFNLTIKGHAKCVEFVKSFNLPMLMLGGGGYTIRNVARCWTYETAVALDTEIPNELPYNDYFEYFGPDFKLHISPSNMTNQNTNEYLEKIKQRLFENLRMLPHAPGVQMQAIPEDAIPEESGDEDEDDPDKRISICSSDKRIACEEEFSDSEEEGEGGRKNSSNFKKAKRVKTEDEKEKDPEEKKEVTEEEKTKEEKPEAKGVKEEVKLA

Compound	IC50 [µM]
Cc1nc(C2(c3ccc(C(=O)Nc4cc(-c5ccc(F)cc5)ccc4N)cc3)CCOCC2)sc1C(C)O (stereo not drawn) [Example 61, N-(4-amino-4′-fluorobiphenyl-3-yl)-4-(4-(5-(1-hydroxyethyl)-4-methylthiazol-2-yl)tetrahydropyran-4-yl)benzamide]	0.00209
O=C(NO)c1ccc(C2(c3nccs3)CCOCC2)cc1 [Example 43, N-hydroxy-4-(4-(thiazol-2-yl)tetrahydropyran-4-yl)benzamide]	0.363
Nc1ccc(-c2ccc(Cl)s2)cc1NC(=O)c1ccc(C2(c3ccccn3)CCOCC2)cc1 [Example 60, N-(2-amino-5-(5-chlorothiophen-2-yl)phenyl)-4-(4-(pyridin-2-yl)tetrahydropyran-4-yl)benzamide]	0.00616
Nc1ccc(F)cc1NC(=O)c1ccc(C2(c3nc(-c4cccnc4)cs3)CCOCC2)cc1 [Example 23, N-(2-amino-5-fluorophenyl)-4-(4-(4-(pyridin-3-yl)thiazol-2-yl)tetrahydropyran-4-yl)benzamide]	0.032
CN1CCN(c2ccc(-c3csc(C4(c5ccc(C(=O)Nc6ccccc6N)cc5)CCOCC4)n3)cn2)CC1 [Example 25, N-(2-aminophenyl)-4-(4-(4-(6-(4-methylpiperazin-1-yl)pyridin-3-yl)thiazol-2-yl)tetrahydropyran-4-yl)benzamide]	0.006
Nc1ccc(-c2cccs2)cc1NC(=O)c1ccc(C2(c3nc(CN4CCOCC4)cs3)CCOCC2)cc1 [Example 33, N-(2-amino-5-(thiophen-2-yl)phenyl)-4-(4-(4-(morpholinomethyl)thiazol-2-yl)tetrahydropyran-4-yl)benzamide]	0.0029
Nc1ccc(-c2ccc(Cl)s2)cc1NC(=O)c1ccc(C2(c3nccs3)CCOCC2)cc1 [Example 45, N-(2-amino-5-(5-chlorothiophen-2-yl)phenyl)-4-(4-(thiazol-2-yl)tetrahydropyran-4-yl)benzamide]	0.00606
Nc1ccc(-c2cccs2)cc1NC(=O)c1ccc(C2(c3nc(CN4CCCC4)cs3)CCOCC2)cc1 [Example 31, N-(2-amino-5-(thiophen-2-yl)phenyl)-4-(4-(4-(pyrrolidin-1-ylmethyl)thiazol-2-yl)tetrahydropyran-4-yl)benzamide]	0.001
Nc1ccc(-c2cccs2)cc1NC(=O)c1ccc(C2(c3nc(-c4cccnc4)cs3)CCOCC2)cc1 [Example 22, N-(2-amino-5-(thiophen-2-yl)phenyl)-4-(4-(4-(pyridin-3-yl)thiazol-2-yl)tetrahydropyran-4-yl)benzamide]	0.014
CCOC(=O)N1CCc2nc(C3(c4ccc(C(=O)Nc5ccccc5N)cc4)CC3)sc2C1 [Example 12]	0.016
CN1CCc2nc(C3(c4ccc(C(=O)Nc5cc(-c6ccc(F)cc6)ccc5N)cc4)CC3)sc2C1 [Example 56, N-(4-amino-4′-fluorobiphenyl-3-yl)-4-(1-(5-methyl-4,5,6,7-tetrahydrothiazolo[5,4-c]pyridine-2-yl)cyclopropyl)benzamide]	0.00325
COCCOCc1csc(C2(c3ccc(C(=O)Nc4cc(-c5cccs5)ccc4N)cc3)CCOCC2)n1 [Example 32, N-(2-amino-5-(thiophen-2-yl)phenyl)-4-(4-(4-((2-methoxyethoxy)methyl)thiazol-2-yl)tetrahydropyran-4-yl)benzamide]	0.0025
Nc1ccc(-c2ccc(F)cc2)cc1NC(=O)c1ccc(C2(c3nccs3)CC2)cc1 [Example 48, N-(4-amino-4′-fluorobiphenyl-3-yl)-4-(1-(thiazol-2-yl)cyclopropyl)benzamide]	0.00294
Nc1ccc(-c2ccc(F)cc2)cc1NC(=O)c1ccc(C2(c3nc(-c4cnccn4)cs3)CCOCC2)cc1 [Example 54, N-(4-amino-4′-fluorobiphenyl-3-yl)-4-(4-(4-(pyrazin-2-yl)thiazol-2-yl)tetrahydropyran-4-yl)benzamide]	0.00625
O=C(NO)c1ccc(C2(c3nc(-c4cnccn4)cs3)CCOCC2)cc1 [Example 53, N-hydroxy-4-(4-(4-(pyrazin-2-yl)thiazol-2-yl)tetrahydropyran-4-yl)benzamide]	0.0979
Nc1ccc(-c2ccc(F)cc2)cc1NC(=O)c1ccc(C2(c3nc4c(s3)COCC4)CC2)cc1 [Example 58, N-(4-amino-4′-fluorobiphenyl-3-yl)-4-(1-(6,7-dihydropyrano[4,3-d]thiazol-2-yl)cyclopropyl)benzamide]	0.0208
CC(=O)N1CCc2nc(C3(c4ccc(C(=O)Nc5ccccc5N)cc4)CCOCC3)sc2C1 [Example 27, 4-(4-(5-acetyl-4,5,6,7-tetrahydrothiazolo[5,4-c]pyridin-2-yl)tetrahydropyran-4-yl)-N-(2-aminophenyl)benzamide]	0.019
CN1CCN(c2ccc(-c3csc(C4(c5ccc(C(=O)NO)cc5)CCOCC4)n3)cn2)CC1 [Example 44, N-hydroxy-4-(4-(4-(6-(4-methylpiperazin-1-yl)pyridin-3-yl)thiazol-2-yl)tetrahydropyran-4-yl)benzamide]	0.0071
CC(C)NC(=O)c1csc(C2(c3ccc(C(=O)Nc4ccccc4N)cc3)CC2)n1 [Example 10, 2-(1-(4-(2-aminophenylcarbamoyl)phenyl)cyclopropyl)-N-isopropylthiazole-4-carboxamide]	0.279
Nc1ccccc1NC(=O)c1ccc(C2(c3nccs3)CCOCC2)cc1 [Example 15]	0.119
Nc1ccccc1NC(=O)c1ccc(C2(c3nc(-c4cccnc4)cs3)CC2)cc1 [Example 5, N-(2-Amino-phenyl)-4-[1-(4-pyridin-3-yl-thiazol-2-yl)-cyclopropyl]-benzamide]	0.012
CC(C)[C@H](N)C(=O)N1CCc2nc(C3(c4ccc(C(=O)Nc5ccccc5N)cc4)CC3)sc2C1 [Example 17, (S)-4-(1-(5-(2-amino-3-methylbutanoyl)-4,5,6,7-tetrahydrothiazolo[5,4-c]pyridin-2-yl)cyclopropyl)-N-(2-aminophenyl)benzamide]	0.0982
Cc1nc(C2(c3ccc(C(=O)Nc4ccccc4N)cc3)CC2)sc1C(=O)N(C)C [Example 4, 2-(1-(4-(2-aminophenylcarbamoyl)phenyl)cyclopropyl)-N,N-4-trimethylthiazole-5-carboxamide]	0.331
Cc1nc(C2(c3ccc(C(=O)Nc4cc(-c5ccc(F)cc5)ccc4N)cc3)CCOCC2)sc1C [Example 62, N-(4-amino-4′-fluorobiphenyl-3-yl)-4-(4-(4,5-dimethylthiazol-2-yl)tetrahydropyran-4-yl)benzamide]	0.00896
Cc1ccc(-c2ccc(N)c(NC(=O)c3ccc(C4(c5nccs5)CCOCC4)cc3)c2)s1 [Example 46, N-(2-amino-5-(5-methylthiophen-2-yl)phenyl)-4-(4-(thiazol-2-yl)tetrahydropyran-4-yl)benzamide]	0.00749
Nc1ccc(-c2ccc(F)cc2)cc1NC(=O)c1ccc(C2(c3ccccn3)CCOCC2)cc1 [Example 59, N-(4-amino-4′-fluorobiphenyl-3-yl)-4-(4-(pyridin-2-yl)tetrahydropyran-4-yl)benzamide]	0.00231
Nc1ccccc1NC(=O)c1ccc(C2(c3nc(-c4cccnc4)cs3)CCOCC2)cc1 [Example 8, N-(2-Amino-phenyl)-4-[4-(4-pyridin-3-yl-thiazol-2-yl)-tetrahydro-pyran-4-yl]-benzamide]	0.037
